Measurements published in patent US20250082674A1, “METHODS OF TREATING COPPER METABOLISM-ASSOCIATED DISEASES OR DISORDERS” (priority 2021, published 2025).
Where two headings read alike, the source gives them in different places.

Legend:
patients with WD = test system: patients with WD
Text: All patients who completed the 24-week Study Period were enrolled in a 36-month Extension Period.

[1] = test system: patients with Wilson disease (WD)
Text: The UWDRS Part II total score results for this pooled population are presented in Table 16 and FIG. 13 and the UWDRS Part III total score results are in Table 17 and FIG. 14. The UWDRS Part III Functional Subscale (comprised of the items arising from a chair, gait, handwriting and speech) results for this pooled population are presented in Table 18 and FIG. 15.

Bis-choline tetrathiomolybdate [BC-TTM]
liver status, Modified Nazer Score (patients with WD; Study 201): stabilized or improved in the majority of patients
neurological status, change from baseline in UWDRS Part III (patients with WD; Study 201, p<0.0001): significant improvements
patient-reported disability, change from baseline in UWDRS Part II (patients with WD; Study 201, p<0.001): significant improvements
participants with total cholesterol increase above the ULN (patients with WD; human, in vivo): 7 participants
patients with reversible liver (function) test elevations (patients with WD; human, in vivo): 39%
tolerability (patients with WD; human, in vivo): generally well-tolerated
UWDRS Part III (Range 0-175) LSM change from baseline ([1]; BC-TTM exposure 4 wks): −0.83
UWDRS Part III (Range 0-175) Mean change from baseline ([1]; BC-TTM exposure 4 wks): −0.72
UWDRS Part III Functional Subscale (Range 0-10) LSM change from baseline ([1]; BC-TTM exposure 4 wks): −0.083
UWDRS Part III Functional Subscale (Range 0-10) Mean change from baseline ([1]; BC-TTM exposure 4 wks): −0.072
UWDRS Part III (Range 0-175) LSM change from baseline ([1]; BC-TTM exposure 12 wks): −1.13
UWDRS Part III (Range 0-175) Mean change from baseline ([1]; BC-TTM exposure 12 wks): −1.11
UWDRS Part III Functional Subscale (Range 0-10) LSM change from baseline ([1]; BC-TTM exposure 12 wks): −0.141
UWDRS Part III Functional Subscale (Range 0-10) Mean change from baseline ([1]; BC-TTM exposure 12 wks): −0.137
UWDRS Part III (Range 0-175) LSM change from baseline ([1]; BC-TTM exposure 24 wks): −1.10
UWDRS Part III (Range 0-175) Mean change from baseline ([1]; BC-TTM exposure 24 wks): −0.97
UWDRS Part III Functional Subscale (Range 0-10) LSM change from baseline ([1]; BC-TTM exposure 24 wks): −0.146
UWDRS Part III Functional Subscale (Range 0-10) Mean change from baseline ([1]; BC-TTM exposure 24 wks): −0.157
UWDRS Part III (Range 0-175) LSM change from baseline ([1]; BC-TTM exposure 36 wks): −1.85
UWDRS Part III (Range 0-175) Mean change from baseline ([1]; BC-TTM exposure 36 wks): −2.38
UWDRS Part III Functional Subscale (Range 0-10) LSM change from baseline ([1]; BC-TTM exposure 36 wks): −0.202
UWDRS Part III Functional Subscale (Range 0-10) Mean change from baseline ([1]; BC-TTM exposure 36 wks): −0.286
UWDRS Part III (Range 0-175) LSM change from baseline ([1]; BC-TTM exposure 48 wks): −2.76
UWDRS Part III (Range 0-175) Mean change from baseline ([1]; BC-TTM exposure 48 wks): −3.37
UWDRS Part III Functional Subscale (Range 0-10) LSM change from baseline ([1]; BC-TTM exposure 48 wks): −0.285
UWDRS Part III Functional Subscale (Range 0-10) Mean change from baseline ([1]; BC-TTM exposure 48 wks): −0.345
UWDRS Part III (Range 0-175) LSM change from baseline ([1]; BC-TTM exposure 60 wks): −3.24
UWDRS Part III (Range 0-175) Mean change from baseline ([1]; BC-TTM exposure 60 wks): −2.00
UWDRS Part III Functional Subscale (Range 0-10) LSM change from baseline ([1]; BC-TTM exposure 60 wks): −0.355
UWDRS Part III Functional Subscale (Range 0-10) Mean change from baseline ([1]; BC-TTM exposure 60 wks): −0.422
UWDRS Part III (Range 0-175) LSM change from baseline ([1]; BC-TTM exposure 72 wks): −4.43
UWDRS Part III (Range 0-175) Mean change from baseline ([1]; BC-TTM exposure 72 wks): −4.93
UWDRS Part III Functional Subscale (Range 0-10) LSM change from baseline ([1]; BC-TTM exposure 72 wks): −0.399
UWDRS Part III Functional Subscale (Range 0-10) Mean change from baseline ([1]; BC-TTM exposure 72 wks): −0.494
UWDRS Part III (Range 0-175) LSM change from baseline ([1]; BC-TTM exposure 96 wks): −6.32
UWDRS Part III (Range 0-175) Mean change from baseline ([1]; BC-TTM exposure 96 wks): −7.95
UWDRS Part III Functional Subscale (Range 0-10) LSM change from baseline ([1]; BC-TTM exposure 96 wks): −0.607
UWDRS Part III Functional Subscale (Range 0-10) Mean change from baseline ([1]; BC-TTM exposure 96 wks): −0.900
UWDRS Part III (Range 0-175) LSM change from baseline ([1]; BC-TTM exposure 120 wks): −6.69
UWDRS Part III (Range 0-175) Mean change from baseline ([1]; BC-TTM exposure 120 wks): −8.92
UWDRS Part III Functional Subscale (Range 0-10) LSM change from baseline ([1]; BC-TTM exposure 120 wks): −0.660
UWDRS Part III Functional Subscale (Range 0-10) Mean change from baseline ([1]; BC-TTM exposure 120 wks): −0.946
UWDRS Part III (Range 0-175) LSM change from baseline ([1]; BC-TTM exposure 144 wks): −7.70
UWDRS Part III (Range 0-175) Mean change from baseline ([1]; BC-TTM exposure 144 wks): −9.78
UWDRS Part III Functional Subscale (Range 0-10) LSM change from baseline ([1]; BC-TTM exposure 144 wks): −0.803
UWDRS Part III Functional Subscale (Range 0-10) Mean change from baseline ([1]; BC-TTM exposure 144 wks): −1.042
UWDRS Part III (Range 0-175) LSM change from baseline ([1]; BC-TTM exposure 168 wks): −9.48
UWDRS Part III (Range 0-175) Mean change from baseline ([1]; BC-TTM exposure 168 wks): −18.08
UWDRS Part III Functional Subscale (Range 0-10) LSM change from baseline ([1]; BC-TTM exposure 168 wks): −0.903
UWDRS Part III Functional Subscale (Range 0-10) Mean change from baseline ([1]; BC-TTM exposure 168 wks): −1.841
UWDRS Part III (Range 0-175) LSM change from baseline ([1]; BC-TTM exposure 192 wks): −6.13
UWDRS Part III (Range 0-175) Mean change from baseline ([1]; BC-TTM exposure 192 wks): −12.65
UWDRS Part III Functional Subscale (Range 0-10) LSM change from baseline ([1]; BC-TTM exposure 192 wks): −0.437
UWDRS Part III Functional Subscale (Range 0-10) Mean change from baseline ([1]; BC-TTM exposure 192 wks): −1.250
UWDRS Part III (Range 0-175) LSM change from baseline ([1]; BC-TTM exposure 216 wks): −6.52
UWDRS Part III (Range 0-175) Mean change from baseline ([1]; BC-TTM exposure 216 wks): −16.17
